From ChEMBL document CHEMBL1201862, “PubChem BioAssay data set” (2004)
Several values for one entry are separate records, joined by “and”; a condition that tells them apart may be missing. Equal entries are not always repeated.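 Five compound concentrations were applied to cells in 96-well plates for 48 hours; endpoints were derived by simple linear interpolation of the resulting dose-response curve. Here, GI50 denotes the concentration required for 50% inhibition of growth.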 Activity calls are given as the source filed them. Cut-off read from the data, not from the text of the source: active = GI50 up to about 1.1 µM and inactive = higher.

Tests used:
Test in all cases: inhibition of tumour cell growth, NCI panel, 48 h
EKVX = test system: EKVX
HCT-116 = test system: HCT-116
K562 = test system: K562
MOLT-4 = test system: MOLT-4
Malme-3M = test system: Malme-3M
NCI/ADR-RES = test system: NCI/ADR-RES
OVCAR-3 = test system: OVCAR-3
SF-295 = test system: SF-295
SW-620 = test system: SW-620
U-251 = test system: U-251
HCT-15 = test system: HCT-15
MDA-MB-231 = test system: MDA-MB-231
MDA-MB-435 = test system: MDA-MB-435
OVCAR-4 = test system: OVCAR-4
PC-3 = test system: PC-3
T47D = test system: T47D
TK-10 = test system: TK-10
LXFL 529 = test system: LXFL 529
NCI-H226 = test system: NCI-H226
RXF 631 = test system: RXF 631

SMILES	GI50 (EKVX)	GI50 (HCT-116)	GI50 (K562)	GI50 (MOLT-4)	GI50 (Malme-3M)	GI50 (NCI/ADR-RES)	GI50 (OVCAR-3)	GI50 (SF-295)	GI50 (SW-620)	GI50 (U-251)	GI50 (HCT-15)	GI50 (MDA-MB-231)	GI50 (MDA-MB-435)	GI50 (OVCAR-4)	GI50 (PC-3)	GI50 (T47D)	GI50 (TK-10)	GI50 (LXFL 529)	GI50 (NCI-H226)	GI50 (RXF 631)
CCCCCCCCCCSCC(CO)NC(=O)/C=C/c1c(C)[nH]c(=O)[nH]c1=O (centres undefined)	3.93 µM (inactive) and 2.01 µM (inactive)	1.26 µM (inactive) and 1.29 µM (inactive)	908 nM (active) and 1.12 µM (inactive)	1.22 µM (inactive) and 1.44 µM (inactive)	813 nM (active) and 703 nM (active)	> 50 µM (inactive) and > 42.8 µM (inactive)	916 nM (active) and 798 nM (active)	29.1 µM (inactive) and 17.9 µM (inactive)	1.61 µM (inactive) and 1.51 µM (inactive)	532 nM (active) and 355 nM (active)										
COc1cccc(N2C(=O)CSC2c2c[nH]c3ccccc23)c1 (centres undefined)	> 100 µM (inactive)	> 100 µM (inactive)	> 100 µM (inactive)	> 100 µM (inactive)			> 100 µM (inactive)	> 100 µM (inactive)	> 100 µM (inactive)	> 100 µM (inactive)	> 100 µM	> 100 µM (inactive)	> 100 µM (inactive)	73.6 µM (inactive)	> 100 µM (inactive)	> 100 µM (inactive)	> 100 µM (inactive)			
CCOC1=NC(C(F)(F)F)(C(F)(F)F)N=C(N2CCOCC2)O1	> 100 µM (inactive)	> 100 µM (inactive)		> 100 µM (inactive)		> 100 µM (inactive)	> 100 µM (inactive)	> 100 µM (inactive)	> 100 µM (inactive)	> 100 µM (inactive)	> 100 µM	> 100 µM (inactive)	> 100 µM (inactive)	> 100 µM (inactive)	> 100 µM (inactive)	27 µM (inactive)	> 100 µM (inactive)			
CCOC(=O)c1ncoc1[C@H]1COC(C)(C)O1	> 100 µM (inactive)	> 100 µM (inactive)	> 100 µM (inactive)	> 100 µM (inactive)	> 100 µM (inactive)		> 100 µM (inactive)	> 100 µM (inactive)	> 100 µM (inactive)	> 100 µM (inactive)	> 100 µM			> 100 µM (inactive)			> 100 µM (inactive)	> 100 µM (inactive)	> 100 µM (inactive)	> 100 µM (inactive)
Cc1ccc(NC(=O)CC/C(CC(=O)C(C)(C)C)=N/NC(=O)c2cc3ccccc3cc2O)cc1C	36.5 µM (inactive)	40.3 µM (inactive)	> 10 µM (inactive)	17.7 µM (inactive)	35.2 µM (inactive)		32.7 µM (inactive)	17.9 µM (inactive)	48 µM (inactive)	35.6 µM (inactive)	27.7 µM			30.8 µM (inactive)				35.2 µM (inactive)	37.2 µM (inactive)	44.1 µM (inactive)
